Measured values published in US20150209315A1 (Cumberland Pharmaceuticals, priority 2009, published 2015).
Where “and” joins values, the source holds several entries; their conditions need not be identical. Equal values may be shown once.

How the values were obtained:
[1] = test system: patients undergoing orthopedic surgical procedures; experiment: Example 3: pain with movement measured with VAS; assay type: in vivo, human; conditions: 800 mg, immediately post-surgery
Protocol: Efficacy was measured by comparing the reduction in morphine use over the 24 hours immediately post surgery. Efficacy was measured by reduction in the requirement for the narcotic analgesic, morphine, in the 24 hours post surgery.
The Clinical Trial Material (“CTM”) was mixed in 250 mL normal saline. Saline was chosen as the control group (placebo) for this study, to ensure blinding and allow for analysis of treatment effect.
The study participants were randomized based on criteria for an efficacy evaluable population (EEP) versus an intent to treat population (ITT).
Eligible patients were randomized to one of the two treatment groups.
Patients were evaluated and compared for morphine requirements between the active doses and placebo using analysis of variance and covariance procedures at an overall alpha level of 0.05. Secondary efficacy parameters were also evaluated and compared among the treatment groups using appropriate statistical methods described in the statistical analysis section of the protocol. For the adverse events, instead of using an unadjusted Chi-square test and a Cochran-Mantel-Haenszel test adjusted for center to compare treatment groups with respect to the numbers of patients reporting AEs, a Fisher's exact test was used to compare treatment groups for any AE that was reported by five or more patients.

[2] = test system: post-operative adult patients; experiment: Example 2: treatment failures; assay type: in vivo, human; conditions: 800 mg; ITT
Protocol: Eligible patients were randomized to one of the two treatment groups. All patients were able (but were not required) to receive morphine until approximately 45 minutes before the end of the surgical procedure. After that time, only fentanyl was allowed until the end of the operation. The first dose of ibuprofen was administered at approximately the initiation of skin closure. […] Other than ibuprofen or placebo, only morphine was administered for pain. […] Additional morphine could be administered at the discretion of the treating physician if adequate pain control had still not been achieved. Patients given non-morphine analgesics were classified as treatment failures. Treatment failures were not replaced. A treatment failure was defined as a patient that required narcotic pain medication, other than morphine, or non-narcotic medications including the use of another NSAID through the treatment period. If other narcotics (other than morphine) or NSAIDS were started, CTM was discontinued.

[3] = test system: patients undergoing orthopedic surgical procedures; experiment: Example 3: additional measurements of efficacy; assay type: in vivo, human; conditions: 800 mg
Excerpt: Additional measurements of efficacy were incidence of treatment failure, time to GI motility, time to resumption of ambulation, time to resumption of liquid intake, time to resumption of solid diet, and length of hospital stay.

[4] = test system: post-operative adult patients; experiment: Example 2: patient self-assessment of pain, VAS at rest; assay type: in vivo, human; conditions: 800 mg
[5] = test system: post-operative adult patients; experiment: Example 1: morphine usage in the 24 hours following surgery; assay type: in vivo, human
Protocol: The reference product, dose and mode of administration was normal saline, 100 ml, intravenous. Saline was chosen as the control group (placebo) for this study, to ensure blinding and allow for analysis of treatment effect. The duration of treatment was up to 5 days post surgery. […] Groups were stratified according to two age groups: <45 and >45 to 70 years of age and two weight groups: <75 kg and >75 kg of weight. The study participants were randomized based on criteria for an efficacy evaluable population (EEP) versus an intent to treat population (ITT). The ITT included all patients who were randomized and received at least a partial dose of ibuprofen. […] Eligible patients were randomized to one of the three treatment groups. All patients were able (but were not required) to receive morphine until approximately 45 minutes before the end of the surgical procedure. After that time, only fentanyl was allowed until the end of the operation. The first dose of ibuprofen was administered at approximately the initiation of skin closure. […] Other than ibuprofen or placebo, only morphine was administered for pain. […] Additional morphine could be administered at the discretion of the treating physician if adequate pain control had still not been achieved. Patients given non-morphine analgesics were classified as treatment failures. Treatment failures were not replaced. […] Secondary efficacy parameters were also evaluated and compared among the treatment groups using appropriate statistical methods described in the statistical analysis section of the protocol. Safety information was compared between the treatment groups using Chi-Square or Cochran-Mantel-Haenszel test. Demographic, background and baseline information among the treatment groups was also described. […] Efficacy analyses were performed on the Intent to Treat (ITT) population and the Efficacy Evaluable Population (EEP). In addition a subset of EEP patients who underwent abdominal hysterectomies (AH) were analyzed separately to evaluate efficacy in a more homogenous population.

[6] = test system: patients with fever and severe sepsis; conditions: cited from earlier work
[7] = test system: fever in hospitalized patients; experiment: Clinical trials of intravenous ibuprofen for fever; assay type: in vivo, human
[8] = test system: patients undergoing orthopedic surgical procedures; experiment: Example 3: pain at rest measured with VAS; conditions: 800 mg, immediately post-surgery
[9] = 400 mg, AH (abdominal hysterectomies)
[10] = 800 mg, AH (abdominal hysterectomies)

With `CC(C)Cc1ccc(C(C)C(=O)O)cc1` (centres unmarked) [Ibuprofen, 2-(4-isobutylphenyl) propionic acid] the “decrease in the mean VAS with movement” value ([1]; AT) was 13.9%, the “decrease in the mean VAS with movement” value ([1]; efficacy evaluable) was 13.6% and the “decrease in the mean VAS with movement” value ([1]; intent-to-treat) was 14.3%. For the same compound, the “treatment failures, number of patients” value [2] was 7, the “treatment failures, percent of patients” value [2] was 4% and the “treatment failure, time to GI motility, ambulation, liquid intake, solid diet, length of hospital stay vs placebo” value [3] was “no significant differences between treatment groups”. For the same compound, the “VAS Score measured at Rest (median)” value ([4]; EEP, 1-Hour) was 8.0, the “VAS Score measured at Rest, % Reduction vs Placebo” value (“VAS Score … % Reduction vs Placebo” below) ([4]; EEP, 1-Hour) was 0.0% and the “VAS Score measured at Rest (median)” value ([4]; EEP, 3-Hour) was 5.0. The “VAS Score … % Reduction vs Placebo” value ([4]; EEP, 3-Hour) was 16.7%, the “VAS Score measured at Rest (median)” value ([4]; EEP, 6-Hour) was 4.0 and the “VAS Score … % Reduction vs Placebo” value ([4]; EEP, 6-Hour) was 20.0%. The “VAS Score measured at Rest (median)” value ([4]; EEP, 9-Hour) was 3.0, the “VAS Score measured at Rest (median)” value ([4]; EEP, 12-Hour) was 2.5 and the “VAS Score … % Reduction vs Placebo” value ([4]; EEP, 12-Hour) was 16.7%. The “VAS Score measured at Rest (median)” value ([4]; EEP, 15-Hour) was 2.0, the “VAS Score … % Reduction vs Placebo” value ([4]; EEP, 15-Hour) was 33.3% and the “VAS Score measured at Rest (median)” value ([4]; EEP, 18-Hour) was 2.0. For the same compound, the “VAS Score … % Reduction vs Placebo” value ([4]; EEP, 18-Hour) was 33.3%, the “VAS Score measured at Rest (median)” value ([4]; EEP, 21-Hour) was 1.0 and the “VAS Score … % Reduction vs Placebo” value ([4]; EEP, 21-Hour) was 66.7%. For the same compound, the “VAS Score measured at Rest (median)” value ([4]; EEP, 24-Hour) was 2.0, the “VAS Score … % Reduction vs Placebo” value ([4]; EEP, 24-Hour) was 33.3% and the “VAS Score measured at Rest (median)” value ([4]; ITT, 1-Hour) was 8.0. For the same compound, the “VAS Score … % Reduction vs Placebo” value ([4]; ITT, 1-Hour) was 0.0%, the “VAS Score measured at Rest (median)” value ([4]; ITT, 3-Hour) was 5.7 and the “VAS Score … % Reduction vs Placebo” value ([4]; ITT, 3-Hour) was 5.0%. For the same compound, the “VAS Score measured at Rest (median)” value ([4]; ITT, 6-Hour) was 4.0, the “VAS Score … % Reduction vs Placebo” value ([4]; ITT, 6-Hour) was 11.1% and the “VAS Score measured at Rest (median)” value ([4]; ITT, 9-Hour) was 3.0. The “VAS Score measured at Rest (median)” value ([4]; ITT, 12-Hour) was 2.7, the “VAS Score … % Reduction vs Placebo” value ([4]; ITT, 12-Hour) was 20.6% and the “VAS Score measured at Rest (median)” value ([4]; ITT, 15-Hour) was 2.0. For the same compound, the “VAS Score … % Reduction vs Placebo” value ([4]; ITT, 15-Hour) was 31.0%, the “VAS Score measured at Rest (median)” value ([4]; ITT, 18-Hour) was 2.0 and the “VAS Score … % Reduction vs Placebo” value ([4]; ITT, 18-Hour) was 31.0%. The “VAS Score measured at Rest (median)” value ([4]; ITT, 21-Hour) was 2.0, the “VAS Score … % Reduction vs Placebo” value ([4]; ITT, 21-Hour) was 33.3% and the “VAS Score measured at Rest (median)” value ([4]; ITT, 24-Hour) was 2.0. For the same compound, the “VAS Score … % Reduction vs Placebo” value ([4]; ITT, 24-Hour) was 31.0%, the “Morphine Usage in the 24 Hours Following Surgery, % Reduction vs. PBO” value (“Morphine Usage … % Reduction vs. PBO” for short) [5, 9] was 15.9% and 16% and the “Morphine Usage in the 24 Hours Following Surgery, Median” value (shortened to “Morphine Usage … Median”) [5, 9] was 45.00. The “Morphine Usage … % Reduction vs. PBO” value ([5]; 400 mg, AH (abdominal hysterectomies), listed as IVIb) was 15.89%, the “Morphine Usage … % Reduction vs. PBO” value ([5]; 400 mg, EEP) was 4.4% and the “Morphine Usage … Median” value ([5]; 400 mg, EEP) was 43.00. The “Morphine Usage … % Reduction vs. PBO” value ([5]; 400 mg, EEP, listed as IVIb) was 4.44%, the “Morphine Usage … % Reduction vs. PBO” value ([5]; 400 mg, ITT) was 2.76% and the “Morphine Usage … Median” value ([5]; 400 mg, ITT) was 44.00. For the same compound, the “Morphine Usage … % Reduction vs. PBO” value [5, 10] was 41.1% and 41%, the “Morphine Usage … Median” value [5, 10] was 31.50 and the “Morphine Usage … % Reduction vs. PBO” value ([5]; 800 mg, AH (abdominal hysterectomies), listed as IVIb) was 41.12%. For the same compound, the “Morphine Usage … Median” value ([5]; 800 mg, EEP) was 33.50, the “Morphine Usage … % Reduction vs. PBO” value ([5]; 800 mg, EEP, listed as IV ibuprofen) was 26% and the “Morphine Usage … % Reduction vs. PBO” value ([5]; 800 mg, EEP, listed as IVIb) was 25.56%. The “Morphine Usage … % Reduction vs. PBO” value ([5]; 800 mg, ITT) was 21.6%, the “Morphine Usage … Median” value ([5]; 800 mg, ITT) was 35.50 and the “Morphine Usage … % Reduction vs. PBO” value ([5]; 800 mg, ITT, listed as IVIb) was 21.55%. For the same compound, the “safety (renal function, gastrointestinal bleeding, transfusion requirements, other SAEs)” value ([6]; in vivo, iv) was “safe”, the “effect on fever, pulse rate and lactic acidosis” value ([6]; patients with sepsis, intravenous) was “reduced fever and pulse rate and lessened lactic acidosis” and the “treated patients with reduced fever” value ([7]; at 4 hours) was 100%. The “placebo-treated vs IV Ibuprofen treated patients with uncontrolled fever” value ([7]; at 24 hours) was ~4 times, the reduction in temperature ([7]; critically ill patients, 48-hour study period) was “Significant reduction in temperature was maintained” and the “acetaminophen requirement and fever control vs acetaminophen alone” value ([7]; critically ill patients, subset analysis) was “required less acetaminophen and had better fever control”. For the same compound, the “Rapid fever reduction seen as fast as” value ([7]; malaria patients) was 30 min, the “patients with significant fever reduction” value ([7]; phase 3 clinical trial, within 4 hours, vs 32% with placebo) was 77% and the “decrease in the mean VAS at rest” value ([8]; AT) was 15.8%. The “decrease in the mean VAS at rest” value ([8]; efficacy evaluable) was 14.7% and the “decrease in the mean VAS at rest” value ([8]; intent-to-treat) was 16.5%.
